Experimental data published in patent EP0303437A2, “Platinum triamine compounds containing nucleotides or nucleosides as antitumor agents” (ENGELHARD CORPORATION, priority 1987, dated 1989).
Several values for one entry are separate records, joined by “and”; a condition that tells them apart may be missing. Equal entries are not always repeated.

Legend:
L1210 Leukemia = L1210 Leukemia antitumor screening; type: in vivo, Female CDF₁ mice; details: for %ILS: ILS ≧ 25% represents activity; for Surv: survivors per group of 6 mice at three times the MST of controls
Protocol: (§1) Each of the compounds was evaluated in the Sarcoma 180 Ascites screen and at least some of the compounds were also evaluated in the L1210 Leukemia tumor models.
(§2) L1210 screening was conducted according to a published method. […] Female CDF₁ mice (16 - 22 g) were implanted with 1 x 10⁶ tumor cells ip on day zero. Compounds were administered in 0.5 mL water ip on day one. Groups of 6 mice were used for each dose. A control group of mice received only tumor and 0.5 mL water. A positive control group received tumor and 8 mg/kg cisplatin in 0.5 mL 0.15 M NaCl. The test was terminated after three times the mean survival time (MST) of the control group, surviving mice were counted as dying on that day. Activity was determined based on the percent increase in MST of test mice over controls (%ILS). […] The tumor line was maintained through weekly transfer of 5 x 10⁴ cells in DBA/2 mice.

Sarcoma 180 Ascites = Sarcoma 180 Ascites (S180a) antitumor screening; type: in vivo, Female CFW mice; details: for %ILS: ILS ≧ 50% indicates activity; for Surv: survivors per group of 6 mice at twice the MST of controls
Protocol: as §1, §2
Female CFW mice (18 - 25 g) were implanted with 2 x 10⁶ cells ip on day zero. Compounds were administered in 0.5 mL water ip on day one. Groups of 6 mice were used for each test dose as well as controls as defined above. The test was run for twice the MST of the control group, with survivors counted as dying on that day. An ILS of ≧ 50% indicates activity. The tumor line was maintained through weekly transfer of 4 x 10⁶ cells in CFW mice.

[1] = Dose 10 mg/kg ip in water on day one
[2] = Dose 20 mg/kg ip in water on day one
[3] = Dose 40 mg/kg ip in water on day one
[4] = Dose 80 mg/kg ip in water on day one
[5] = Dose 160 mg/kg ip in water on day one
[6] = Dose 320 mg/kg ip in water on day one
[7] = 8 mg/kg cisplatin in 0.5 mL 0.15 M NaCl, survivors per 6 mice, one value per experiment

Molecule	%ILS (L1210 Leukemia; [1])	Surv (L1210 Leukemia; Dose 10 mg/kg ip)	%ILS (L1210 Leukemia; [2])	Surv (L1210 Leukemia; Dose 20 mg/kg ip)	%ILS (L1210 Leukemia; [3])	Surv (L1210 Leukemia; Dose 40 mg/kg ip)	%ILS (L1210 Leukemia; [4])	Surv (L1210 Leukemia; Dose 80 mg/kg ip)	%ILS (Sarcoma 180 Ascites; [1])	Surv (Sarcoma 180 Ascites; Dose 10 mg/kg ip)	%ILS (Sarcoma 180 Ascites; [2])	Surv (Sarcoma 180 Ascites; Dose 20 mg/kg ip)	%ILS (Sarcoma 180 Ascites; [3])	Surv (Sarcoma 180 Ascites; Dose 40 mg/kg ip)	%ILS (Sarcoma 180 Ascites; [4])	Surv (Sarcoma 180 Ascites; Dose 80 mg/kg ip)	%ILS (Sarcoma 180 Ascites; [5])	Surv (Sarcoma 180 Ascites; Dose 160 mg/kg ip)	%ILS (Sarcoma 180 Ascites; [6])	Surv (Sarcoma 180 Ascites; Dose 320 mg/kg ip)	further results
cis-[Pt(NH₃)₂(2′-deoxycytidine)Cl]NO₃	12%	0/6	23%	0/6	26%	0/6	44%	0/6													%ILS (L1210 Leukemia; [5]): 41%; Surv (L1210 Leukemia; Dose 160 mg/kg ip): 0/6; %ILS (L1210 Leukemia; [6]): 59%; Surv (L1210 Leukemia; Dose 320 mg/kg ip): 0/6
N.N.Nc1ccn(C2CC(O)C(CO)O2)c(=O)n1.[Cl-].[Cl-].[Pt+2] (stereo not drawn) [cis-[Pt(NH₃)₂(2′-deoxycytidine)Cl]Cl]									10%	0/6	34%	0/6	61%	2/6	85%	3/6	76%	4/6	51%	1/6	
N.N.Nc1ccn(C2OC(CO)C(O)C2O)c(=O)n1.O=[N+]([O-])[O-].[Cl-].[Pt+2] [cis-[Pt(NH₃)₂(1-β-D-arabinofuranosylcytosine)Cl]NO₃]	-22%	0/6	-8%	0/6	0%	0/6	6%	0/6	-12%	0/6	-3%	0/6	2%	0/6	42%	2/6	51%	1/6	45%	2/6	%ILS (L1210 Leukemia; [5]): 10%; Surv (L1210 Leukemia; Dose 160 mg/kg ip): 0/6; %ILS (L1210 Leukemia; [6]): 10%; Surv (L1210 Leukemia; Dose 320 mg/kg ip): 0/6
cis-[Pt(NH₃)₂Cl₂] [Positive Control, reference compound]																					Positive Control Surv (L1210 Leukemia; [7]): 0/6; Positive Control %ILS (Sarcoma 180 Ascites; 8 mg/kg cisplatin in 0.5 mL 0.15 M NaCl, one value per experiment, run with the compound of that table section): 86% and 54% and 82% and 59%; Positive Control Surv (Sarcoma 180 Ascites; [7]): 4/6 and 0/6 and 3/6
cis-[Pt(NH₃)₂(2′-deoxyguanosine)Cl]Cl									2%	0/6	15%	1/6	76%	4/6	88%	4/6	85%	4/6	6%	2/6	
Nc1nc2c(c(=O)[nH]1)[n+]([Pt]([NH2])([NH2])[Cl])cn2C1OC(CO)C(O)C1O.O=[N+]([O-])[O-] (stereo not drawn) [cis-[Pt(NH₃)₂(guanosine)Cl]NO₃]	-24%	0/6	-4%	0/6	-4%	0/6	2%	0/6	2%	0/6	15%	1/6	23%	0/6	16%	1/6	79%	3/6	-45%	1/6	%ILS (L1210 Leukemia; [5]): 8%; Surv (L1210 Leukemia; Dose 160 mg/kg ip): 0/6; %ILS (L1210 Leukemia; [6]): -26%; Surv (L1210 Leukemia; Dose 320 mg/kg ip): 0/6
Nc1ccn(C2OC(CO)C(O)C2O)c(=O)[n+]1[Pt]([NH2])([NH2])[Cl].O=[N+]([O-])[O-] (stereo not drawn) [cis-[Pt(NH₃)₂(cytidine)Cl]NO₃]									6%	0/6	1%	0/6	-4%	0/6	-7%	0/6	8%	0/6	30%	0/6	
